Test results reported in ChEMBL document CHEMBL1140637, “QSAR modeling of matrix metalloproteinase inhibition by N-hydroxy-alpha-phenylsulfonylacetamide derivatives” (Bioorg Med Chem, 2007).

What was measured:
[1] = biological target: T1, Interstitial collagenase (Homo sapiens) (UniProt P03956); test: Inhibition of MMP1
T1 sequence (whole entry): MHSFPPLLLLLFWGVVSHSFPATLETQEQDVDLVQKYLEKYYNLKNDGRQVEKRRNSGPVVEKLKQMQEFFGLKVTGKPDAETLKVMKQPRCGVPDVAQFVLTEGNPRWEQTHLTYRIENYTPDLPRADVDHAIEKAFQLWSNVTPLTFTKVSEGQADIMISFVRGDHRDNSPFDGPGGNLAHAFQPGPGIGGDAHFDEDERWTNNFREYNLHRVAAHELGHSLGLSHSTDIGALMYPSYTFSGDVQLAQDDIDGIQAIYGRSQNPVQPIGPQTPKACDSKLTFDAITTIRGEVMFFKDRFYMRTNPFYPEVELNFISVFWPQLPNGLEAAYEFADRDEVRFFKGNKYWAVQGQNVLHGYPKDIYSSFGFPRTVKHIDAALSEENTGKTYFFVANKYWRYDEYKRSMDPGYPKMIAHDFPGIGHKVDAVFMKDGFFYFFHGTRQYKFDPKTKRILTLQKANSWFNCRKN

[2] = biological target: Matrix metalloproteinase-9 (Homo sapiens) (UniProt P14780); test: Inhibition of MMP9
Chain of Matrix metalloproteinase-9 (Homo sapiens) (P14780 whole entry): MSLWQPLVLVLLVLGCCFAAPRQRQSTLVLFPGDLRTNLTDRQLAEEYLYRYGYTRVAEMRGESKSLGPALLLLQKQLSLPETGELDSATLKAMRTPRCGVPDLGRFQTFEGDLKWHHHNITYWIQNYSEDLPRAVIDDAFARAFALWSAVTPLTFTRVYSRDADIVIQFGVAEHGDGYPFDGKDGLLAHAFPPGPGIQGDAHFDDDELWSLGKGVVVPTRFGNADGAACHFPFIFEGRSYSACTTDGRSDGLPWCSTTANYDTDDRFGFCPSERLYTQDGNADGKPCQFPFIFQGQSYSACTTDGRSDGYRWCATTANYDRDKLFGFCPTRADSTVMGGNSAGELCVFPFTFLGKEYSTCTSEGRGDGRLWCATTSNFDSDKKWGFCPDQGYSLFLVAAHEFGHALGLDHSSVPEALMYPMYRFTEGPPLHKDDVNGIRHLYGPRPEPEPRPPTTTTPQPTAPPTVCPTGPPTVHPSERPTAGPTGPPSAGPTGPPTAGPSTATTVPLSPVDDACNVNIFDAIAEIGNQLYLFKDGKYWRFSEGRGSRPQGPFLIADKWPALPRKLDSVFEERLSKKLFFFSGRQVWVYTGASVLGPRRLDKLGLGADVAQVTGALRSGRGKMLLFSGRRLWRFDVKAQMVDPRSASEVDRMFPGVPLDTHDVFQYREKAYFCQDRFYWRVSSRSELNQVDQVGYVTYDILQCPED

[3] = biological target: Collagenase 3 (Homo sapiens) (UniProt P45452)

Row | log(10^6/IC50) [1] | log(10^6/IC50) [2] | log(10^6/IC50) [3] | SMILES
1 | 2.97 | 6 | 6 | CCCCN1CCC(C(=O)NO)(S(=O)(=O)c2ccc(Oc3ccc(Cl)cc3)cc2)CC1
2 | 4.4 | 5.52 |  | O=C(NO)C1(S(=O)(=O)c2ccc(-c3ccco3)cc2)CCN(Cc2ccccc2)CC1
3 | 2.88 | 4.89 | 5.52 | COc1ccc(S(=O)(=O)C2(C(=O)NO)CCN(Cc3ccc(-c4ccccc4)cc3)CC2)cc1
4 | 3.31 | 4.77 | 5.7 | COc1ccc(S(=O)(=O)C2(C(=O)NO)CCN(Cc3ccc(C)cc3)CC2)cc1
5 | 3.17 | 4.08 | 4.49 | C#CC[C@](Cc1cccnc1)(C(=O)NO)S(=O)(=O)c1ccc(OC)cc1
6 | 2.35 | 3.43 | 4.47 | COc1ccc(S(=O)(=O)C2(C(=O)NO)CCN(C(C)C)CC2)cc1
7 | 3.23 | 5.15 | 5.4 | COc1ccc(S(=O)(=O)[C@](C)(Cc2ccc(OCCCN3CCN(c4cccc(Cl)c4)CC3)cc2)C(=O)NO)cc1
8 | 3.1 | 6 | 6 | O=C(NO)C1(S(=O)(=O)c2ccc(Oc3ccc(Cl)cc3)cc2)CCN(Cc2ccccc2)CC1
9 | 3.31 | 5 | 5.7 | COc1ccc(S(=O)(=O)C2(C(=O)NO)CCN(Cc3ccccc3)CC2)cc1
10 | 2.71 | 5.7 |  | CCCCOc1ccc(S(=O)(=O)C2(C(=O)NO)CCN(Cc3ccc(OCCN4CCCCC4)cc3)CC2)cc1
11 | 3.28 | 5.05 | 5.7 | COc1ccc(S(=O)(=O)C2(C(=O)NO)CCN(Cc3cccc(OC)c3)CC2)cc1
12 | 2.15 | 4.37 | 5.7 | CCCCOc1ccc(S(=O)(=O)C2(C(=O)NO)CCN(CC)CC2)cc1
13 | 3.24 |  | 4.05 | COc1ccc(S(=O)(=O)[C@](CCC(C)C)(Cc2cccnc2)C(=O)NO)cc1
14 | 2.47 | 5 | 5.7 | CCCCOc1ccc(S(=O)(=O)C2(C(=O)NO)CCN(C)CC2)cc1
15 | 2.9 | 5.7 | 5.7 | O=C(NO)C1(S(=O)(=O)c2ccc(Oc3ccc(Cl)cc3)cc2)CCNCC1
16 | 3.8 | 4.64 |  | COc1ccc(S(=O)(=O)C(C)(Cc2ccc(-c3ccccc3)cc2)C(=O)NO)cc1 (stereo unspecified)
17 | 2.82 | 5.52 |  | CCCCOc1ccc(S(=O)(=O)C2(C(=O)NO)CCN(Cc3cccc(OC)c3)CC2)cc1
18 | 2.42 | 5.3 |  | CCCCOc1ccc(S(=O)(=O)C2(C(=O)NO)CCN(CCCOc3ccccc3)CC2)cc1
19 |  | 4.55 | 5.7 | CCCCOc1ccc(S(=O)(=O)C2(C(=O)NO)CCN(CCCC)CC2)cc1
20 | 3.62 | 4.96 | 4.85 | C=C(C)[C@@](C)(C(=O)NO)S(=O)(=O)c1ccc(OC)cc1
21 | 3.37 | 5.22 |  | COc1ccc(S(=O)(=O)C2(C(=O)NO)CCN(Cc3ccc(-c4ccccn4)cc3)CC2)cc1
22 | 2.5 | 4.85 | 5.3 | CCC(CC)COc1ccc(S(=O)(=O)C2(C(=O)NO)CCN(Cc3ccccc3)CC2)cc1
23 | 3.5 | 4.89 | 4.82 | CCN(CC)CCOc1ccc(CC(C)(C(=O)NO)S(=O)(=O)c2ccc(OC)cc2)cc1 (single isomer, unassigned)
24 | 3.27 | 4.96 | 5.52 | COc1ccc(S(=O)(=O)C2(C(=O)NO)CCN(Cc3ccc(-c4cccs4)cc3)CC2)cc1

The next lines start with the molecule.

Row | SMILES | log(10^6/IC50) [1] | log(10^6/IC50) [2] | log(10^6/IC50) [3]
25 | CCCCOc1ccc(S(=O)(=O)C2(C(=O)NO)CCN(CCOc3ccccc3)CC2)cc1 | 2.54 | 5.3 | 
26 | O=C(NO)C1(S(=O)(=O)c2ccc(OCc3ccccc3)cc2)CCN(Cc2ccccc2)CC1 |  | 5.52 | 
27 | COc1ccc(S(=O)(=O)[C@@](C)(CC2CCCCC2)C(=O)NO)cc1 | 3.49 | 5.05 | 4.62
28 | CCCCOc1ccc(S(=O)(=O)C2(C(=O)NO)CCN(Cc3ccc(Cl)c(Cl)c3)CC2)cc1 | 2.44 | 4.7 | 5.3
29 | COc1ccc(S(=O)(=O)C2(C(=O)NO)CCN(Cc3ccc(OCCN4CCCCC4)cc3)CC2)cc1 | 3.41 | 5.52 | 5.52
30 | CCN(CC)CCOc1ccc(C[C@](C)(C(=O)NO)S(=O)(=O)c2ccc(-c3ccco3)cc2)cc1 | 4.85 | 5.4 | 5.7
31 | COc1ccc(CN2CCC(C(=O)NO)(S(=O)(=O)c3ccc(Oc4ccc(Cl)cc4)cc3)CC2)cc1 | 3.31 | 6 | 
32 | COc1ccc(S(=O)(=O)C2(C(=O)NO)CCN(CCOc3ccccc3)CC2)cc1 | 3.2 | 4.59 | 5.52
33 | CCN1CCC(C(=O)NO)(S(=O)(=O)c2ccc(Oc3ccc(Cl)cc3)cc2)CC1 | 2.76 | 6 | 6
34 | C=C(C)N1CCC(C(=O)NO)(S(=O)(=O)c2ccc(OC)cc2)CC1 | 2.86 | 4.41 | 5.15
35 | COc1ccc(S(=O)(=O)C2(C(=O)NO)CCN(C(C)(C)C)CC2)cc1 |  | 3.19 | 3.83
36 | COc1ccc(S(=O)(=O)C2(C(=O)NO)CCN(Cc3ccc(Cl)c(Cl)c3)CC2)cc1 | 3.35 | 5.22 | 5.7
37 | COc1ccc(S(=O)(=O)[C@](C)(Cc2ccc(OCCN3CCCCC3)cc2)C(=O)NO)cc1 | 3.62 | 5.05 | 
38 | COc1ccc(S(=O)(=O)C(C)(C/C=C/c2ccccc2)C(=O)NO)cc1 (stereo unspecified) | 3.52 | 4.8 | 4.92
39 | COc1ccc(CCN2CCC(C(=O)NO)(S(=O)(=O)c3ccc(OC)cc3)CC2)cc1 | 3.18 | 4.47 | 5.7
40 | COc1ccc(S(=O)(=O)C2(C(=O)NO)CCN(Cc3ccc(F)cc3)CC2)cc1 | 3.18 | 4.8 | 5.7
41 | COc1ccc(S(=O)(=O)C2(C(=O)NO)CCN(CCCOc3ccccc3)CC2)cc1 | 2.92 | 4.36 | 5.4
42 | COc1ccc(S(=O)(=O)C2(C(=O)NO)CCN(Cc3ccc4ccccc4c3)CC2)cc1 | 3.43 | 5.3 | 
